Measured values taken from BindingDB's records for doi:10.7270/Q23R0R8T (Burnham Center For Chemical Genomics, 2010).

Target: Nucleotide-binding oligomerization domain-containing protein 2 (Homo sapiens, UniProt Q9HC29)
Assay: NOD2 signaling inhibitors in MDP-stimulated cells, cell-based, uHTS, luminescence (AID 2001)

Chain of Nucleotide-binding oligomerization domain-containing protein 2 (Q9HC29 whole entry, the tested form may be a part): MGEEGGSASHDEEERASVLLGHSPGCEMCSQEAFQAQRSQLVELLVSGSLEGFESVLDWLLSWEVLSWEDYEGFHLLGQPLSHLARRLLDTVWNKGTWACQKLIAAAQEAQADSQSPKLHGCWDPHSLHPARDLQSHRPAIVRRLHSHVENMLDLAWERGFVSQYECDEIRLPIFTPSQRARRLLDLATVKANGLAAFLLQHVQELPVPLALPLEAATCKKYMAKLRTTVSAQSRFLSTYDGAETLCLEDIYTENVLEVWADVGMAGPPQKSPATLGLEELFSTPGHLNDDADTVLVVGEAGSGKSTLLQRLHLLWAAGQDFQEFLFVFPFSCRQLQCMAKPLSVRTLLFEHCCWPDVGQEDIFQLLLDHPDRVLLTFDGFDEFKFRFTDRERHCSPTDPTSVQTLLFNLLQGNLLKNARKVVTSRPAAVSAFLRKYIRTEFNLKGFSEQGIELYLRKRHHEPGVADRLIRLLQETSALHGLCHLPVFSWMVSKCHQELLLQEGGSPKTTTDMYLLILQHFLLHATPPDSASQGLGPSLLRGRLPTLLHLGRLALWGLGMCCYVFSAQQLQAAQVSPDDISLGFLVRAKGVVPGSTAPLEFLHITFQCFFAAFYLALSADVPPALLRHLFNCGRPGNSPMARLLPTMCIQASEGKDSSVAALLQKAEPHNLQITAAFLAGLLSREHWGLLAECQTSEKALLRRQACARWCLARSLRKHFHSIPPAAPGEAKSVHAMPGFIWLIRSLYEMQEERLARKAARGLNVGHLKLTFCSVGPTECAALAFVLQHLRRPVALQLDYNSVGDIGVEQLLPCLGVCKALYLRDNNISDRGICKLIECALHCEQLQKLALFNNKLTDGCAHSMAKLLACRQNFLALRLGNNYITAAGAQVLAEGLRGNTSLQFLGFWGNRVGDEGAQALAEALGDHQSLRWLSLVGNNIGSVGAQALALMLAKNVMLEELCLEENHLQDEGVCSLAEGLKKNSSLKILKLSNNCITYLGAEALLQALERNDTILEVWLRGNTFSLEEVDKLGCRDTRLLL

| Compound | IC50 |
| --- | --- |
| Cc1cc(CN=Nc2ncnc(N)c2[N+](=O)[O-])c(C)n1-c1ccccc1 | 6.1 µM |
| Cc1cc(SCC(=O)OCC(=O)C(C#N)c2nc3ccccc3[nH]2)c(C)cc1Br (stereo unspecified) | 5.41 µM |
| O=C1C(=O)N(c2nccs2)C(c2ccccc2)C1C(=O)c1ccc2c(c1)OCCO2 (stereo unspecified) | 18.6 µM |
| CCCOC1=CC(=O)C(C=NNC(=S)Nc2ccccc2[N+](=O)[O-])C=C1 (stereo unspecified) [1-(2-nitrophenyl)-3-[[(E)-(6-oxo-4-propoxy-1-cyclohexa-2,4-dienylidene)methyl]amino]thiourea] | 0.233 µM |
| C=CCN1C(=O)C(=NNC(=S)Nc2cccc(C)c2)c2ccccc21 [1-(3-methylphenyl)-3-[(Z)-(2-oxidanylidene-1-prop-2-enyl-indol-3-ylidene)amino]thiourea] | 1.18 µM |
| CCCCCCC1=Cc2c/c(=C3/NN=C(c4ccccc4OC)O3)c(=O)oc2=CC1=O [6-Hexyl-7-hydroxy-3-[5-(2-methoxy-phenyl)-[1,3,4]oxadiazol-2-yl]-chromen-2-one] | 8.48 µM |
| CCCCCCC1=Cc2c/c(=C3/NN/C(=C4/C=CC=CC4=O)O3)c(=O)oc2=CC1=O [(3E)-6-hexyl-3-[(5E)-5-(6-oxocyclohexa-2,4-dien-1-ylidene)-1,3,4-oxadiazolidin-2-ylidene]chromene-2,7-dione] | 4.36 µM |
| Cc1ccc(O)c(/N=C/C2=CC(Cc3ccccc3)C=C([N+](=O)[O-])C2=O)c1 (stereo unspecified) [(6E)-6-[[(5-methyl-2-oxidanyl-phenyl)amino]methylidene]-2-nitro-4-(phenylmethyl)cyclohexa-2,4-dien-1-one] | 12.4 µM |
| Cc1ccc(C)c(SCC(=O)OCC(=O)C(C#N)c2nc3ccccc3[nH]2)c1 (stereo unspecified) [MLS000392255] | 4.92 µM |
| Cc1cc(CN=Nc2nc(N)ncc2[N+](=O)[O-])c(C)n1-c1ccccc1F [MLS000392273] | 6.02 µM |
| COc1ccc(NS(=O)(=O)c2ccc(N=NC(C)c3ccncc3)c([N+](=O)[O-])c2)cc1 (stereo unspecified) [MLS000393523] | 2.11 µM |
| C=CCN1C(=O)C(=NNC(=S)Nc2cccc(OC)c2)c2ccccc21 [SMR000132469] | 1.76 µM |
| CCOc1ccc(-c2csc(/C(C#N)=C/C3C=CC(=O)C([N+](=O)[O-])=C3)n2)cc1 (stereo unspecified) [SMR000237723] | 2.58 µM |
| CN1C(=O)C(=NNC(=S)Nc2ccccc2F)c2cc(S(=O)(=O)N3CCOCC3)ccc21 [SMR000314843] | 9.77 µM |
| Cc1cc(N=NCc2ccccc2[N+](=O)[O-])nc(-n2nc(C)cc2C)n1 [SMR000426946] | 6.55 µM |
| COc1cc(CN=Nc2nc3c(c(=O)n(C)c(=O)n3C)n2Cc2ccccc2)ccc1OC(=O)c1ccco1 [[4-[[(7-benzyl-1,3-dimethyl-2,6-dioxopurin-8-yl)hydrazinylidene]methyl]-2-methoxyphenyl] furan-2-carboxylate] | 5.98 µM |
